Test results reported in US8426447B2, “Spiro-tricyclic ring compounds as beta-secretase modulators and methods of use” (Amgen Inc., priority 2008, dated 2013).

What was measured:
BACE1 [1] = biological target: T1, BACE1 (Homo sapiens, UniProt P56817); test: In Vitro Enzymatic BACE FRET (Fluorescence Resonance Energy Transfer) Assay; type: biochemical
In short: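 Acetate buffer at pH 4.2 with 10% DMSO and 100 uM genapol hosts the enzymatic reaction, initiated by 50 nM FRET substrate and allowed to proceed one hour. Tris quench to neutral pH precedes the fluorescence measurement.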

BACE1 [2] = biological target: T1, BACE1; test: In Vitro BACE Cell-based Assay (HEK cell assay): Aβ40 in conditioned medium of cells stably expressing Amyloid Precursor Protein, sandwich ELISA
In short: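 Conditioned medium Aβ40 by ELISA: pAb40 capture 3 h 4° C., biotin-6E10 detection 2 h 4° C., Streptavidin-Europium TRF. IC50 fitted from % control.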

[3] = Table IV, class symbols, read-out: BACE1 FRET assay
[4] = Table IV, class symbols, read-out: HEK cell assay
[5] = HEK cells, read-out: HEK cell assay
[6] = in vitro BACE FRET enzyme assay, IC50 class symbols, read-out: BACE1 FRET assay
[7] = HEK cell-based assay, Aβ40 in conditioned medium, IC50 class symbols, read-out: HEK cell assay

T1 sequence (P56817 46-501, species assumed): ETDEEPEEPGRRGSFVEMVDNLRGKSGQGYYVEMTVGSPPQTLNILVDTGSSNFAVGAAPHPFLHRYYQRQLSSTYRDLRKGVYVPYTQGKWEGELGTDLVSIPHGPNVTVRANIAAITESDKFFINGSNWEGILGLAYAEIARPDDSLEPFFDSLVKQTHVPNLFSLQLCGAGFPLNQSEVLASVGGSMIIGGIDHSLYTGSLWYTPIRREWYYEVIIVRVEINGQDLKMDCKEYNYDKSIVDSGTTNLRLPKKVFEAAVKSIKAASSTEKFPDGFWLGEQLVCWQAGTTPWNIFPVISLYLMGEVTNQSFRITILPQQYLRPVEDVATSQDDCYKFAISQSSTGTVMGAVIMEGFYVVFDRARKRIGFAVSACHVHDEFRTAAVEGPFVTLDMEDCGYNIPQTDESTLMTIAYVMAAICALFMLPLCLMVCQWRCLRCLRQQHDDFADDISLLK

Row | Structure (SMILES) | IC50 (BACE1 [1]; [3]) [µM] | IC50 (BACE1 [2]; [4]) [µM] | IC50 (BACE1 [1]; read-out: BACE1 FRET assay) [µM] | other results
1 | CC(C)(C)C#Cc1ccc2c(c1)[C@]1(COC(N)=N1)c1cc(C#CC(C)(C)C)cnc1O2 [compound 898] | 0.1 to 1 | > 5 | – | –
2 | NC1=N[C@]2(CO1)c1ccccc1Oc1ccc(-c3c(F)ccnc3F)cc12 [compound 599] | 0.1 to 1 | 1 to 5 | – | –
3 | Cc1cncc(-c2ccc3c(c2)[C@@]2(COC(N)=N2)c2cc(OCC(C)(C)C)ccc2O3)c1 [Example 81, (4S)-2′-(2,2-dimethylpropoxy)-7′-(5-methyl-3-pyridinyl)spiro[1,3-oxazole-4,9′-xanthen]-2-amine] | – | – | – | IC50 (BACE1 [1]; Table II, read-out: BACE1 FRET assay): < 0.1 µM; IC50 (BACE1 [2]; Table II, Aβ40, 24 h incubation, read-out: HEK cell assay): < 0.1 µM
4 | COc1ccc2c(c1)C1(COC(N)=N1)c1cc(-c3cncnc3)ccc1O2 (stereo not drawn) [Example 14, 2′-methoxy-7′-(5-pyrimidinyl)spiro[1,3-oxazole-4,9′-xanthen]-2-amine] | – | – | – | IC50 (BACE1 [1]; Table 1, read-out: BACE1 FRET assay): 0.1 to 1 µM; IC50 (BACE1 [2]; Table 1, Aβ40, 24 h incubation, read-out: HEK cell assay): 1 to 5 µM
5 | CC1(C)CN(c2cnc3c(c2)[C@]2(COC(N)=N2)c2cc(-c4cccnc4F)ccc2O3)CCO1 [compound 463] | – | – | < 0.1 | IC50 (BACE1 [2]; [5]): < 0.1 µM
6 | Cn1cc(-c2ccc3c(c2)[C@]2(COC(N)=N2)c2cc(-c4ccc(F)nc4)ccc2O3)cn1 [compound 631] | < 0.1 | < 0.1 | – | –
7 | NC1=N[C@@]2(CO1)c1cc(-c3cccnc3F)ccc1Oc1cnc(C3CCOCC3)cc12 [Example 495, (5S)-7-(2-fluoro-3-pyridinyl)-3-(tetrahydro-2H-pyran-4-yl)spiro[chromeno[2,3-c]pyridine-5,4′-[1,3]oxazol]-2′-amine] | – | – | – | IC50 (BACE1 [1]; BACE1 FRET assay (uM)): < 0.1 µM; IC50 (BACE1 [2]; HEK cell assay (uM), HEK cells): < 0.1 µM
8 | CC(C)(C)COc1ccc2c(c1)[C@]1(COC(N)=N1)c1cc(-c3ccsc3)ccc1O2 [compound 833] | < 0.1 | 1 to 5 | – | –
9 | CC(C)C[C@@H]1CN(c2ccc3c(c2)[C@]2(COC(N)=N2)c2cc(-c4cccnc4)ccc2O3)CCO1 [compound 360] | – | – | – | IC50 (BACE1 [1]; [6]): 0.1 to 1 µM; IC50 (BACE1 [2]; [7]): 0.1 to 1 µM
10 | NC1=N[C@@]2(CO1)c1cc(-c3cc(F)ccc3F)ccc1Oc1ncc(C3=CCOCC3)cc12 [compound 487] | – | – | < 0.1 | IC50 (BACE1 [2]; [5]): < 0.1 µM
11 | NC1=N[C@]2(CO1)c1cc(-c3cccnc3F)ccc1Oc1c(F)cccc12 [compound 574] | < 0.1 | 0.1 to 1 | – | –
12 | NC1=N[C@@]2(CO1)c1ccccc1Oc1ccc(-c3cccnc3F)cc12 [compound 641] | 0.1 to 1 | 1 to 5 | – | –
13 | CCC(C)(O)COc1ccc2c(c1)[C@]1(COC(N)=N1)c1cc(-c3cccnc3)ccc1O2 (stereo partly drawn) [compound 770] | – | – | < 0.1 | IC50 (BACE1 [2]; read-out: HEK cell assay): < 0.1 µM
14 | CC(C)(C)C[C@H](F)c1ccc2c(c1)[C@]1(COC(N)=N1)c1cc(-c3cncnc3)ccc1O2 [116a, (4S)-2′-((1S)-1-fluoro-3,3-dimethylbutyl)-7′-(5-pyrimidinyl)spiro[1,3-oxazole-4,9′-xanthen]-2-amine] | – | – | – | IC50 (BACE1 [1]; Table III, IC50's in uM ranges, read-out: BACE1 FRET assay): < 0.1 µM; IC50 (BACE1 [2]; Table III, IC50's in uM ranges, read-out: HEK cell assay): 0.1 to 1 µM
15 | NC1=N[C@@]2(CO1)c1cc(-c3cccnc3F)ccc1Oc1ccc([C@H]3CCCCO3)cc12 [compound 365] | – | – | – | IC50 (BACE1 [1]; [6]): < 0.1 µM; IC50 (BACE1 [2]; [7]): < 0.1 µM
16 | NC1=N[C@@]2(CO1)c1cc(-c3cccnc3)ccc1Oc1cnc([C@@H]3CCCCO3)cc12 [compound 696] | – | – | < 0.1 | IC50 (BACE1 [2]; read-out: HEK cell assay): < 0.1 µM
17 | CC(C)(C)COc1ccc2c(c1)[C@]1(COC(N)=N1)c1cc(-c3cccnc3Cl)ccc1O2 [compound 913] | < 0.1 | 0.1 to 1 | – | –
18 | NC1=N[C@@]2(CO1)c1cc(-c3cccnc3)ccc1Oc1ccc(N3CCOC4(CC4)C3)cc12 [compound 419] | – | – | < 0.1 | IC50 (BACE1 [2]; [5]): < 0.1 µM
19 | CC1(COc2ccc3c(c2)[C@@]2(COC(N)=N2)c2cc(-c4ccccc4)cnc2O3)COC1 [compound 966, (5S)-7-((3-methyl-3-oxetanyl)methoxy)-3-phenylspiro[chromeno[2,3-b]pyridine-5,4′-[1,3]oxazol]-2′-amine] | – | – | < 0.1 | IC50 (BACE1 [2]; read-out: HEK cell assay): < 0.1 µM
20 | COCC(=O)Nc1ccc2c(c1)[C@@]1(COC(N)=N1)c1cc(C#CC(C)(C)C)ccc1O2 [compound 324] | – | – | – | IC50 (BACE1 [1]; [6]): < 0.1 µM; IC50 (BACE1 [2]; [7]): 0.1 to 1 µM
21 | COC(=O)c1ccc(-c2ccc3c(c2)[C@]2(COC(N)=N2)c2cc(-c4cccnc4)ccc2O3)s1 [compound 722] | – | – | < 0.1 | IC50 (BACE1 [2]; read-out: HEK cell assay): < 0.1 µM
